Laboratory results reported in patent US20230203060A1 (GENFLEET THERAPEUTICS (SHANGHAI) INC., priority 2020, published 2023).
pIC50: −log10 of the molar value.

Tests used:
[1] = test system: KRAS G12C mutant NCI-H358 cells; assay: Cell proliferation inhibition experiment, 3D spheroid, CellTiter-Glo, NCI-H358; assay type: cell-based, human; conditions: Homo sapiens, NCI-H358, 120 h, NCI-H358 (KRAS G12C mutant) 3D spheroid, 5 days with compound, CellTiter-Glo; read-out: H358 IC50
Summary of the method: (§1)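 Spheroids grown overnight from 800 H358 or 400 A549 cells were treated for 5 days with serially diluted compound (3.16-fold, 0.1% DMSO, 2% FBS). ATP-based luminescence gave IC50.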

[2] = test system: A549 cells (KRAS G12S mutant); assay: Cell proliferation inhibition experiment, 3D spheroid, CellTiter-Glo, A549; assay type: cell-based, human; conditions: Homo sapiens, A549, 120 h, A549 (KRAS G12S mutant) 3D spheroid, 5 days with compound, CellTiter-Glo; read-out: A549 IC50
Summary of the method: as §1

SMILES | pIC50 [1] | pIC50 [2]
C=CC(=O)N1CCN2C(=O)c3c(N4CC[C@H](OC)[C@@H]4C)nc(-c4c(O)cccc4F)c(Cl)c3OC[C@H]2C1 [Z347-1, (6aR)-8-acryloyl-4-chloro-3-(2-fluoro-6-hydroxyphenyl)-1-((2S,3S)-3-methoxy-2-methylpyrrolidin-1-yl)-6,6a,7,8,9,10-hexahydro-12H-pyrazino[2,1-c]pyrido[3,4-f][1,4]oxazepin-12-one] | 8.68 | 5.02
C=CC(=O)N1CCN2C(=O)c3c(N4CC(C#N)CC4(C)C)nc(-c4c(O)cccc4F)c(F)c3OC[C@H]2C1 (stereo partly drawn) [Z335] | 7.96 | < 4.52
C=CC(=O)N1CCN2C(=O)c3c(N4CCCC4(C)C)nc(-c4c(O)cccc4F)c(Cl)c3OC[C@H]2C1 [Z22, (6aR)-8-acryloyl-4-chloro-1-(2,2-dimethylpyrrolidin-1-yl)-3-(2-fluoro-6-hydroxyphenyl)-6,6a,7,8,9,10-hexahydro-12H-pyrazino[2,1-c]pyrido[3,4-f][1,4]oxazepin-12-one] | 8.70 | < 4.52
C=CC(=O)N1CCN2C(=O)c3c(N4C[C@@H](CO)CC4(C)C)nc(-c4c(O)cccc4F)c(Cl)c3OC[C@H]2C1 (single isomer, unassigned) [Z240-1] | 8.60 | 5.00
C=CC(=O)N1CCN2C(=O)c3c(N4CCN(C(C)=O)C[C@@H]4C)nc(-c4c(O)cccc4F)c(Cl)c3OC[C@H]2C1 [Z313-1] | 8.80 | < 4.52
C=CC(=O)N1CCN2C(=O)c3c(N4C[C@@H](OC)CC4(C)C)nc(-c4c(O)cccc4F)c(Cl)c3OC[C@H]2C1 (single isomer, unassigned) [Z244-1] | 8.72 | 5.54
C=CC(=O)N1CCN2C(=O)c3c(N4CCC[C@@]4(C)CO)nc(-c4c(O)cccc4F)c(Cl)c3OC[C@H]2C1 [Z279-2] | 8.42 | < 4.52
C=CC(=O)N1CCN2C(=O)c3c(N4CC(=O)N(CC)C[C@@H]4C)nc(-c4c(O)cccc4F)c(Cl)c3OC[C@H]2C1 [Z319-1, (6aR)-8-acryloyl-4-chloro-1-((S)-4-ethyl-2-methyl-5-oxopiperazin-1-yl)-3-(2-fluoro-6-hydroxyphenyl)-6,6a,7,8,9,10-hexahydro-12H-pyrazino[2,1-c]pyrido[3,4-f][1,4]oxazepin-12-one] | 8.64 | < 4.52
C=CC(=O)N1CCN2C(=O)c3c(N4CCN(C)C[C@@H]4C)nc(-c4c(O)ccc(Cl)c4F)c(Cl)c3OC[C@H]2C1 [Z343, (6aR)-8-acryloyl-4-chloro-3-(3-chloro-2-fluoro-6-hydroxyphenyl)-1-((S)-2,4-dimethylpiperazin-1-yl)-6,6a,7,8,9,10-hexahydro-12H-pyrazino[2,1-c]pyrido[3,4-f][1,4]oxazepin-12-one] | 7.98 | 5.17
